Data on three compounds can be found in ChEMBL document CHEMBL1275440, “In vitro activity of telavancin against resistant gram-positive bacteria” (2008).

Assay [1] has as its system Streptococcus pneumoniae. The assay can be described thus: Antibacterial activity against multidrug-resistant Streptococcus pneumoniae clinical isolate assessed as susceptibility level by broth microdilution method. It is filed as functional.
For assay [2], the system named is Streptococcus pneumoniae. The assay can be described thus: Antibacterial activity against penicillin resistant Streptococcus pneumoniae clinical isolate assessed as susceptibility level by broth microdilution method. The format is functional.
Assay [3] relates to Streptococcus pneumoniae. Kind of assay: Antibacterial activity against penicillin intermediate Streptococcus pneumoniae clinical isolate assessed as susceptibility level by broth microdilution method. It is filed as functional.
In assay [4] the test system is Streptococcus viridans. The assay can be described thus: Antibacterial activity against Streptococcus viridans clinical isolate by broth microdilution method. The format is functional.
Assay [5] relates to Streptococcus constellatus. The assay can be described thus: Antibacterial activity against Streptococcus constellatus clinical isolate by broth microdilution method. The format is functional.
The test system of assay [6] is Streptococcus oralis. Kind of assay: Antibacterial activity against Streptococcus oralis clinical isolate by broth microdilution method. The format is functional.
The subject of assay [7] is Streptococcus intermedius. The assay can be described thus: Antibacterial activity against Streptococcus intermedius clinical isolate by broth microdilution method. It is filed as functional.
For assay [8], the system named is Streptococcus mitis. Kind of assay: Antibacterial activity against Streptococcus mitis clinical isolate by broth microdilution method. It is filed as functional.
Assay [9] relates to Streptococcus agalactiae. The assay can be described thus: Antibacterial activity against Streptococcus agalactiae group B clinical isolate by broth microdilution method. The format is functional.
The test system of assay [10] is Streptococcus pyogenes. The assay can be described thus: Antibacterial activity against Streptococcus pyogenes group A clinical isolate by broth microdilution method. It is filed as functional.
Assay [11] concerns Streptococcus pneumoniae. The assay can be described thus: Antibacterial activity against multidrug-resistant Streptococcus pneumoniae clinical isolate by broth microdilution method. It is filed as functional.
Assay [12] relates to Streptococcus pneumoniae. Kind of assay: Antibacterial activity against penicillin resistant Streptococcus pneumoniae clinical isolate by broth microdilution method. The format is functional.
In assay [13] the test system is Streptococcus pneumoniae. Kind of assay: Antibacterial activity against penicillin intermediate Streptococcus pneumoniae clinical isolate by broth microdilution method. It is filed as functional.
Assay [14] concerns Streptococcus viridans. The assay can be described thus: Antibacterial activity against Streptococcus viridans clinical isolate assessed as susceptibility level by broth microdilution method. It is filed as functional.
Assay [15] deals with Streptococcus constellatus. Kind of assay: Antibacterial activity against Streptococcus constellatus clinical isolate assessed as susceptibility level by broth microdilution method. The format is functional.
The subject of assay [16] is Streptococcus oralis. The assay can be described thus: Antibacterial activity against Streptococcus oralis clinical isolate assessed as susceptibility level by broth microdilution method. The format is functional.
Assay [17] deals with Streptococcus intermedius. The assay can be described thus: Antibacterial activity against Streptococcus intermedius clinical isolate assessed as susceptibility level by broth microdilution method. The format is functional.
Assay [18] deals with Streptococcus mitis. Kind of assay: Antibacterial activity against Streptococcus mitis clinical isolate assessed as susceptibility level by broth microdilution method. It is filed as functional.
The subject of assay [19] is Streptococcus agalactiae. Kind of assay: Antibacterial activity against Streptococcus agalactiae group B clinical isolate assessed as susceptibility level by broth microdilution method. It is filed as functional.
The test system of assay [20] is Streptococcus pyogenes. The assay can be described thus: Antibacterial activity against Streptococcus pyogenes group A clinical isolate assessed as susceptibility level by broth microdilution method. It is filed as functional.

≈ marks a conversion by molar mass, not a printed value. Calls of active or inactive are those of the source. The calls are words filed in the database; no cut-off is given here.

As for `CO/N=C(\C(=O)N[C@@H]1C(=O)N2C(C(=O)O)=C(COC(N)=O)CS[C@H]12)c1ccco1` [CEFUROXIME], the Activity came to 2% in the assay with Streptococcus pneumoniae [1], 2% in the assay with Streptococcus pneumoniae [2] and 17% in the assay on Streptococcus pneumoniae [3]. Further, the MIC (in the assay with Streptococcus viridans [4]; in assay [5]; with Streptococcus oralis [6]; in assay [7]; in the assay with Streptococcus mitis [8]; in the assay on Streptococcus agalactiae [9]) was at most 0.12 µg/mL in each case. Also, the MIC in the assay on Streptococcus pyogenes [10] was at most 0.12 µg/mL. The MIC50 result (in the assay with Streptococcus viridans [4]; in assay [5]; in the assay on Streptococcus oralis [6]; in assay [7]; in the assay on Streptococcus mitis [8]) was “inactive” throughout. For the same compound, the MIC90 result (in the assay on Streptococcus viridans [4]; in assay [5]; with Streptococcus oralis [6]; in assay [7]; in the assay on Streptococcus mitis [8]) was “inactive” each time. For the same compound, the MIC50 against Streptococcus agalactiae [9] is at most 0.12 µg/mL; against Streptococcus pyogenes [10], at most 0.12 µg/mL; in the assay on Streptococcus pneumoniae [11] it was over 4 µg/mL; in the assay on Streptococcus pneumoniae [12] it was over 4 µg/mL; against Streptococcus pneumoniae [13], 2 µg/mL (≈ 4.71 µM). Besides, the MIC90 is at most 0.12 µg/mL in the assay on Streptococcus agalactiae [9]; 0.25 µg/mL (≈ 0.589 µM) against Streptococcus pyogenes [10]; over 4 µg/mL with Streptococcus pneumoniae [11]; over 4 µg/mL in the assay on Streptococcus pneumoniae [12]; 4 µg/mL (≈ 9.43 µM) against Streptococcus pneumoniae [13].

In the case of `O=C(O)c1cn(C2CC2)c2cc(N3CCNCC3)c(F)cc2c1=O`, in the assay with Enterococcus faecalis, the MIC50 result was “inactive” and the MIC90 entry was “inactive”.

For `CC1(C)S[C@@H]2[C@H](NC(=O)Cc3ccccc3)C(=O)N2[C@H]1C(=O)O` [PENICILLIN G], the Activity in the assay with Streptococcus viridans [14] was 62%; in [15], 62%; with Streptococcus oralis [16] it was 62%; in assay [17], 62%; in the assay with Streptococcus mitis [18], 62%; in the assay with Streptococcus agalactiae [19], 96%. The Activity is on record as 93% in the assay on Streptococcus pyogenes [20] and 0% with Streptococcus pneumoniae [3]. Moreover, the MIC (in the assay with Streptococcus viridans [4]; in assay [5]; against Streptococcus oralis [6]; in assay [7]; in the assay on Streptococcus mitis [8]; in the assay with Streptococcus agalactiae [9]) was at most 0.06 µg/mL throughout. The minimal inhibitory concentration (MIC) in the assay on Streptococcus pyogenes [10] was at most 0.06 µg/mL; against Streptococcus pneumoniae [12], 2 µg/mL (≈ 5.98 µM). The MIC50 result (with Streptococcus viridans [4]; in assay [5]; in the assay on Streptococcus oralis [6]; in assay [7]; in the assay on Streptococcus mitis [8]) was “inactive” in each case. The MIC90 result (in the assay with Streptococcus viridans [4]; in [5]; with Streptococcus oralis [6]; in assay [7]; in the assay with Streptococcus mitis [8]) was “inactive” throughout. Moreover, the MIC50 in the assay on Streptococcus agalactiae [9] was at most 0.06 µg/mL; in the assay on Streptococcus pyogenes [10], at most 0.06 µg/mL; with Streptococcus pneumoniae [11], 2 µg/mL (≈ 5.98 µM); against Streptococcus pneumoniae [12] it was 2 µg/mL (≈ 5.98 µM); with Streptococcus pneumoniae [13], 1 µg/mL (≈ 2.99 µM). In addition, the MIC90 is at most 0.06 µg/mL with Streptococcus agalactiae [9]; at most 0.06 µg/mL against Streptococcus pyogenes [10]; over 2 µg/mL against Streptococcus pneumoniae [11]; over 2 µg/mL in the assay with Streptococcus pneumoniae [12]; 1 µg/mL (≈ 2.99 µM) with Streptococcus pneumoniae [13].
